From US7728028B2, “Substituted imidazoline compounds” (Gruenenthal GmbH, priority 2005, dated 2010)

Each molecule was assayed against T1, human μ-opiate receptor (Homo sapiens, UniProt P35372) (assay: Affinity for the human μ-opiate receptor ([3H]-naloxone displacement, SPA)). Details: Table 2, Examples 11-161; test substance 1 μmole/l; inhibition of specific [3H]-naloxone binding; CHO-K1 membranes; read-out: μ-Opioid receptor, % inhibition [1 μM].
T1 construct: purchased PerkinElmer Life Sciences, Zaventem, Belgium RB-HOM; host or cells: CHO-K1 cells (recombinant expression; membrane preparation)
T1 sequence (P35372 whole entry): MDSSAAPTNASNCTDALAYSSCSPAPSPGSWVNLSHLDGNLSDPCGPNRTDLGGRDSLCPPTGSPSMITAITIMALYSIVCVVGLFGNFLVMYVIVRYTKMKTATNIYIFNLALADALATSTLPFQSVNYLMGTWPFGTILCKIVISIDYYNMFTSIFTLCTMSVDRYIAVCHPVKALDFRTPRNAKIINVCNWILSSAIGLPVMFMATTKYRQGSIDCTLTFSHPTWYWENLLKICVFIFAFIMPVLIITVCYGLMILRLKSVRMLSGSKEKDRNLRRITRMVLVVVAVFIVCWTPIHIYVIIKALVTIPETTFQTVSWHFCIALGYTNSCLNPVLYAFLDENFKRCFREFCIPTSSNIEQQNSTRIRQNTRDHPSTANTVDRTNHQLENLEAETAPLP
Method: Investigations on the Efficacy of the Compounds According to the Invention Method for Determining the Affinity for the Human μ-Opiate Receptor
The receptor affinity for the human μ-opiate receptor is determined in a homogeneous batch in microtiter plates. For this purpose dilution series of the substances to be tested are incubated with a receptor membrane preparation (15-40 μg protein/250 μl incubation batch) of CHO-K1 cells, which express the human μ-opiate receptor (RB-HOM receptor membrane preparation from PerkinElmer Life Sciences, Zaventem, Belgium), in the presence of 1 nmole/l of the radioactive ligand [^3H]-naloxone (NET719, PerkinElmer Life Sciences company, Zaventem, Belgium) and 1 mg WGA-SPA beads (wheat germ agglutinin SPA beads from Amersham/Pharmacia, Freiburg, Germany) in a total volume of 250 μl for 90 minutes at room temperature. 50 mmole/l of Tris-HCl supplemented with 0.06% bovine serum albumin is used as incubation buffer. In order to determine the non-specific binding, 100 μmole/l of naloxone is additionally added. After the end of the 90 minutes' incubation time the microtiter plates are centrifuged for 20 minutes at 1000 g and the radioactivity is measured in a beta counter (Microbeta-Trilux, PerkinElmer Wallac, Freiburg, Germany). The percentage displacement of the radioactive ligand from its binding to the human μ-opiate receptor at a concentration of the test substances of 1 μmole/l is determined and is given as percentage inhibition of the specific binding.
For `CCCCN1C=NC(CCCC)(C(=O)OC)C1C1CCC(C(c2ccc(Cl)cc2)N(C)C)CC1` (stereo not shown) [Example 33, 1,4-dibutyl-5-{4-[(4-chlorophenyl)-dimethylaminomethyl]-cyclohexyl}-4,5-dihydro-1H-imidazole-4-carboxylic acid methyl ester], the inhibition at 1 µM was 85%.
`CCCCN1C=NC(CC(C)C)(C(=O)OC)C1CC1CCC(C(c2ccc(Cl)cc2)N(C)C)CC1` (stereo not shown) [Example 34, 1-butyl-5-{4-[(4-chlorophenyl)-dimethylaminomethyl]-cyclohexylmethyl}-4-isobutyl-4,5-dihydro-1H-imidazole-4-carboxylic acid methyl ester] was tested, and the inhibition at 1 µM was 98%.
`CCCCN1C=NC(Cc2ccc(Cl)cc2)(C(=O)OC)C1CC1CCC(C(c2ccc(Cl)cc2)N(C)C)CC1` (stereo not shown) [Example 35, 1-butyl-4-(4-chlorobenzyl)-5-{4-[(4-chlorophenyl)-dimethylaminomethyl]-cyclohexylmethyl}-4,5-dihydro-1H-imidazole-4-carboxylic acid methyl ester] gave an inhibition at 1 µM of 92%.
`CCCCN1C=NC(CCCC)(C(=O)OC)C1CC1CCC(C(c2ccc(Cl)cc2)N(C)C)CC1` (stereo not shown) [Example 36, 1,4-dibutyl-5-{4-[(4-chlorophenyl)-dimethylaminomethyl]-cyclohexylmethyl}-4,5-dihydro-1H-imidazole-4-carboxylic acid methyl ester] showed an inhibition at 1 µM of 97%.
In the case of `COC(=O)C1(CC(C)C)N=CN(CCc2ccccc2)C1C1CCC(C(c2cccc(F)c2)N(C)C)CC1` (stereo not shown) [Example 37, 5-{4-[dimethylamino-(3-fluorophenyl)-methyl]-cyclohexyl}-4-isobutyl-1-phenethyl-4,5-dihydro-1H-imidazole-4-carboxylic acid methyl ester], the inhibition at 1 µM is reported as 93%.
In the case of `COC(=O)C1(Cc2ccc(Cl)cc2)N=CN(CCc2ccccc2)C1C1CCC(C(c2cccc(F)c2)N(C)C)CC1` (stereo not shown) [Example 38, 4-(4-chlorobenzyl)-5-{4-[dimethylamino-(3-fluorophenyl)-methyl]-cyclohexyl}-1-phenethyl-4,5-dihydro-1H-imidazole-4-carboxylic acid methyl ester], the inhibition at 1 µM is reported as 84%.
Molecule `CCCCC1(C(=O)OC)N=CN(CCc2ccccc2)C1C1CCC(C(c2cccc(F)c2)N(C)C)CC1` (stereo not shown) [Example 39, 4-butyl-5-{4-[dimethylamino-(3-fluorophenyl)-methyl]-cyclohexyl}-1-phenethyl-4,5-dihydro-1H-imidazole-4-carboxylic acid methyl ester] has an inhibition at 1 µM of 88%.
`COC(=O)C1(CC(C)C)N=CN(CCc2ccccc2)C1C1CCC(C(c2ccc(Cl)cc2)N(C)C)CC1` (stereo not shown) [Example 40, 5-{4-[(4-chlorophenyl)-dimethylaminomethyl]-cyclohexyl}-4-isobutyl-1-phenethyl-4,5-dihydro-1H-imidazole-4-carboxylic acid methyl ester] gave an inhibition at 1 µM of 95%.
For `COC(=O)C1(Cc2ccc(Cl)cc2)N=CN(CCc2ccccc2)C1C1CCC(C(c2ccc(Cl)cc2)N(C)C)CC1` (stereo not shown) [Example 41, 4-(4-chlorobenzyl)-5-{4-[(4-chlorophenyl)-dimethylaminomethyl]-cyclohexyl}-1-phenethyl-4,5-dihydro-1H-imidazole-4-carboxylic acid methyl ester], the inhibition at 1 µM was 79%.
`CCCCC1(C(=O)OC)N=CN(CCc2ccccc2)C1C1CCC(C(c2ccc(Cl)cc2)N(C)C)CC1` (stereo not shown) [Example 42, 4-butyl-5-{4-[(4-chlorophenyl)-dimethylaminomethyl]-cyclohexyl}-1-phenethyl-4,5-dihydro-1H-imidazole-4-carboxylic acid methyl ester] gave an inhibition at 1 µM of 94%.
With `COC(=O)C1(CC(C)C)N=CN(CCc2ccccc2)C1CC1CCC(C(c2ccc(Cl)cc2)N(C)C)CC1` (stereo not shown) [Example 43, 5-{4-[(4-chlorophenyl)-dimethylaminomethyl]-cyclohexylmethy}-4-isobutyl-1-phenethyl-4,5-dihydro-1H-imidazole-4-carboxylic acid methyl ester] the inhibition at 1 µM was 97%.
Molecule `COC(=O)C1(Cc2ccc(Cl)cc2)N=CN(CCc2ccccc2)C1CC1CCC(C(c2ccc(Cl)cc2)N(C)C)CC1` (stereo not shown) [Example 44, 4-(4-chlorobenzyl)-5-{4-[(4-chlorophenyl)-dimethylaminomethyl]-cyclohexylmethyl}-1-phenethyl-4,5-dihydro-1H-imidazole-4-carboxylic acid methyl ester] has an inhibition at 1 µM of 91%.
Work on `CCCCC1(C(=O)OC)N=CN(CCc2ccccc2)C1CC1CCC(C(c2ccc(Cl)cc2)N(C)C)CC1` (stereo not shown) [Example 45, 4-butyl-5-{4-[(4-chlorophenyl)-dimethylaminomethyl]-cyclohexylmethyl}-1-phenethyl-4,5-dihydro-1H-imidazole-4-carboxylic acid methyl ester] yielded an inhibition at 1 µM of 97%.
`COC(=O)C1(CC(C)C)N=CN(Cc2ccccc2)C1C1CCC(C(c2cccc(F)c2)N(C)C)CC1` (stereo not shown) [Example 46, 1-benzyl-5-{4-[dimethylamino-(3-fluorophenyl)-methyl]-cyclohexyl}-4-isobutyl-4,5-dihydro-1H-imidazole-4-carboxylic acid methyl ester] was tested, and the inhibition at 1 µM was 92%.
Work on `COC(=O)C1(Cc2ccc(Cl)cc2)N=CN(Cc2ccccc2)C1C1CCC(C(c2cccc(F)c2)N(C)C)CC1` (stereo not shown) [Example 47, 1-benzyl-4-(4-chlorobenzyl)-5-{4-[dimethylamino-(3-fluorophenyl)-methyl]-cyclohexyl}-4,5-dihydro-1H-imidazole-4-carboxylic acid methyl ester] yielded an inhibition at 1 µM of 74%.
`COC(=O)C1(CC(C)C)N=CN(Cc2ccccc2)C1C1CCC(C(c2ccc(Cl)cc2)N(C)C)CC1` (stereo not shown) [Example 48, 1-benzyl-5-{4-[(4-chlorophenyl)-dimethylaminomethyl]-cyclohexyl}-4-isobutyl-4,5-dihydro-1H-imidazole-4-carboxylic acid methyl ester] showed an inhibition at 1 µM of 93%.
In the case of `COC(=O)C1(Cc2ccc(Cl)cc2)N=CN(Cc2ccccc2)C1C1CCC(C(c2ccc(Cl)cc2)N(C)C)CC1` (stereo not shown) [Example 49, 1-benzyl-4-(4-chlorobenzyl)-5-{4-[(4-chlorophenyl)-dimethylaminomethyl]-cyclohexyl}-4,5-dihydro-1H-imidazole-4-carboxylic acid methyl ester], the inhibition at 1 µM is reported as 84%.
For `COC(=O)C1(CC(C)C)N=CN(Cc2ccccc2)C1CC1CCC(C(c2ccc(Cl)cc2)N(C)C)CC1` (stereo not shown) [Example 50, 1-benzyl-5-{4-[(4-chlorophenyl)-dimethylaminomethyl]-cyclohexylmethyl}-4-isobutyl-4,5-dihydro-1H-imidazole-4-carboxylic acid methyl ester], the inhibition at 1 µM was 94%.
Work on `COC(=O)CCC1(C(=O)OC)N=CN(C2CCCCC2)C1C1CCC(C(c2ccc(Cl)cc2)N(C)C)CC1` (stereo not shown) [Example 51, 5-{4-[(4-chlorophenyl)-dimethylaminomethyl]-cyclohexyl}-1-cyclohexyl-4-(2-methoxycarbonylethyl)-4,5-dihydro-1H-imidazole-4-carboxylic acid methyl ester] yielded an inhibition at 1 µM of 96%.
`COC(=O)C1(CSCc2ccccc2)N=CN(C2CCCCC2)C1C1CCC(C(c2ccc(Cl)cc2)N(C)C)CC1` (stereo not shown) [Example 52, 4-benzylsulfanylmethyl-5-{4-[(4-chlorophenyl)-dimethylaminomethyl]-cyclohexyl}-1-cyclohexyl-4,5-dihydro-1H-imidazole-4-carboxylic acid methyl ester] showed an inhibition at 1 µM of 99%.
Molecule `COC(=O)CCC1(C(=O)OC)N=CN(C2CCCCC2)C1CC1CCC(C(c2ccc(Cl)cc2)N(C)C)CC1` (stereo not shown) [Example 53, 5-{4-[(4-chlorophenyl)-dimethylaminomethyl]-cyclohexylmethyl}-1-cyclohexyl-4-(2-methoxycarbonylethyl)-4,5-dihydro-1H-imidazole-4-carboxylic acid methyl ester] has an inhibition at 1 µM of 96%.
Work on `CCC(C)C1(C(=O)OC)N=CN(C2CCCCC2)C1CC1CCC(C(c2ccc(Cl)cc2)N(C)C)CC1` (stereo not shown) [Example 54, Methyl-4-sec-butyl-5-((4-((4-chlorophenyl)(dimethylamino)methyl)cyclohexyl)methyl)-1-cyclohexyl-4,5-dihydro-1H-imidazole-4-carboxylate] yielded an inhibition at 1 µM of 100%.
`COC(=O)C1(CSC)N=CN(C2CCCCC2)C1CC1CCC(C(c2ccc(Cl)cc2)N(C)C)CC1` (stereo not shown) [Example 55, 5-{4-[(4-chlorophenyl)-dimethylaminomethyl]-cyclohexylmethyl}-1-cyclohexyl-4-methylsulfanylmethyl-4,5-dihydro-1H-imidazole-4-carboxylic acid methyl ester] gave an inhibition at 1 µM of 91%.
`COC(=O)C1(CSCc2ccccc2)N=CN(C2CCCCC2)C1CC1CCC(C(c2ccc(Cl)cc2)N(C)C)CC1` (stereo not shown) [Example 56, 4-benzylsulfanylmethyl-5-{4-[(4-chlorophenyl)-dimethylaminomethyl]-cyclohexylmethyl}-1-cyclohexyl-4,5-dihydro-1H-imidazole-4-carboxylic acid methyl ester] was tested, and the inhibition at 1 µM was 97%.
For `CCCN1C=NC(CSC)(C(=O)OC)C1C1CCC(C(c2cccc(F)c2)N(C)C)CC1` (stereo not shown) [Example 57, 5-{4-[dimethylamino-(3-fluorophenyl)-methyl]-cyclohexyl}-4-methylsulfanylmethyl-1-propyl-4,5-dihydro-1H-imidazole-4-carboxylic acid methyl ester], the inhibition at 1 µM was 86%.
